According to patent publication US20150017673A1, “COMPOSITIONS AND METHODS FOR DRUG-SENSITIZATION OR INHIBITION OF A CANCER CELL” (priority 2012, published 2015):
Like-named read-outs stand apart in the source and are kept apart here.

Experiments:
[1] = test system: human ovarian cancer cell line SK-OV-3; experiment: SK-OV-3 xenograft efficacy study in SCID mice; format: in vivo; settings: after 19 days treatment; DOX only 3.3 mg/kg i.v. weekly
Protocol: In a fifth efficacy study, we generated xenografts of the human ovarian cancer cell line SK-OV-3, a cell line considered doxorubicin-resistant, by bilateral subcutaneous (s.c.) injection of 1×10^7 tumor cells to establish localized tumors in 6-8 week old female SCID mice. Using rifabutin co-administered with DOX, in vivo efficacy was assessed. […] Cycles of Dox or Dox+rifabutin were given once a week for 4 cycles. This cyclical dosing scheme of mouse models has precedent in the literature and is intended to mimic the cycles of DOXIL® (Centocor Ortho Biotech Products, LP, Raritan, N.J.) given in the clinic. Rifabutin was administered on the day of each DOX treatment and by gavage. Mouse body weight and tumor size were monitored.

[2] = test system: lymphoma cell line G3; experiment: Cell growth assay (resazurin fluorescence) on CHOP-resistant G3 NHL cells; format: cell-based, human; settings: for IC50: Homo sapiens
In short: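 CHOP-resistant G3 NHL cells grown five days in RPMI medium were counted by haemocytometer and set to 625,000 cells/ml. They were then added to plates holding test drug, first dissolved in 100% DMSO and diluted in 0.1M PBS to 0.5% final DMSO. Plates incubated 96 hours at 37° C. and 5% CO2. Resazurin at 20 μg/ml was added for a further 24 hours, and plates were read on a BMG Polarstar at 573-605.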

[3] = test system: multi-drug resistant ovarian cancer cell line NCI/ADR-RES; experiment: Cell growth assay on NCI/ADR-RES cells; format: cell-based; settings: ADR-RES; for IC50: Homo sapiens, NCI/ADR-RES
[4] = test system: T lymphoblastoid leukemia MOLT-4; experiment: Cell growth assay on MOLT-4 cells; format: cell-based; settings: for IC50: Homo sapiens
Protocol: Compositions were tested on CHOP-resistant G3 NHL cells that had been cultivated in RPMI medium for five days. Prior to assay, the cells were counted by haemocytometer and cell concentration standardized to 625,000 cells/ml. Test drugs were solubilized in 100% DMSO and then diluted to final assay concentration with 0.1M phosphate buffered saline (PBS) and a final DMSO concentration of 0.5%. Cells were added to assay plates containing the test drugs (rifabutin+148 ng/ml, 74 ng/ml, 37 ng/ml, or 0 ng/ml doxorubicin) and allowed to incubate for 96 hours at 37° C. and 5% CO2. The metabolic dye rezasurin was added to the wells of the assay plate at a final concentration of 20 μg/ml and the plates were incubated for an additional 24 hours. The plates were then read in a BMG Polarstar plate reader at wavelength (573-605) and the data plotted as OD versus increasing dilutions (i.e. decreasing total amounts) of rifabutin derivative concentration.
Additional cell lines used include: ovarian cancer OVCAR-8, T lymphoblastoid leukemia MOLT-4, dexamethasone-resistant multiple myeloma MM.1R, myeloid leukemia cells HL-60, osteosarcoma cells U-2 OS, and myeloma RPMI 8226.

[5] = test system: CHOP-sensitive NHL cell line CRL2631; experiment: Cell growth assay (resazurin) on CHOP-sensitive CRL2631 NHL cells; format: cell-based, human; settings: CRL2631; for IC50: Homo sapiens
[6] = test system: G3 CHOP-resistant NHL cells; settings: fourth study; doxorubicin only group
Protocol: In a first efficacy study, 6-8 week old female SCID mice (7 mice per treatment arm) were injected subcutaneously on both flanks with 1×10^7 G3 CHOP-resistant NHL cells. Once palpable tumors (about […] size) appeared, therapies (CHOP or CHOP+rifabutin) were started. CHOP was administered at the maximum tolerated dose (cyclophosphamide, 40 mg/kg i.v.; doxorubicin, 3.3 mg/kg i.v.; vincristine, 0.5 mg/kg i.v.; and prednisone, 0.2 mg/kg orally daily for 5 d) weekly for 3 weeks. Rifabutin in an amount of 100 mg/kg was administered on the day of each CHOP treatment and 24-hours later by gavage. Mouse body weight and tumor size were monitored every two days and tumor size measured by caliper. The tumor volume formula (L*W*W)/2 was used to calculate tumor mass.
A second efficacy study was conducted where mice were treated before the appearance of palpable tumors. In that experiment, one week after transplantation of CHOP-resistant G3 cells, one group (7 mice) was treated with CHOP-only and a second group (8 mice) was treated with CHOP+rifabutin.
A third study was conducted in which mice injected with CHOP-resistant G3 cells received reduced dosages of CHOP in combination with 33 mg/kg rifabutin. CHOP+rifabutin was administered weekly beginning one week post-inoculation. Control mice were given no CHOP or rifabutin.
SCID mice were injected with CHOP-resistant G3 cells in the same manner as the first efficacy study above. Treatments began 2 weeks post-inoculation and were administered twice weekly.

[7] = after administration; cited from earlier work
[8] = therapeutic drug alone, read-out: IC50
[9] = therapeutic drug with Rifabutin, read-out: IC50 (μM) with Rifabutin

Work on `COc1cccc2c1C(=O)c1c(O)c3c(c(O)c1C2=O)C[C@@](O)(C(=O)CO)C[C@@H]3O[C@H]1C[C@H](N)[C@H](O)[C@H](C)O1` [Doxorubicin, doxorubicin] yielded an average tumor volume [1] of 587 mm^3, an IC50 ([2]; analog alone, lymphoma cell line G3, read-out: IC50) of 2.36 µM and an IC50 ([2]; therapeutic drug with Rifabutin, G3, read-out: IC50 (μM) with Rifabutin) of 0.25 µM. For the same molecule, the “Fold increase in potency” value ([2]; with vs without Rifabutin, G3) was 9.4 fold, the IC50 [3, 8] was > 32 µM and the IC50 [3, 9] was 6.59 µM. For the same molecule, the “Fold increase in potency” value ([3]; with vs without Rifabutin) was >4.9 fold, the IC50 [4, 8] was 0.03 µM and the IC50 [4, 9] was 0.01 µM. For the same molecule, the “Fold increase in potency” value ([4]; with vs without Rifabutin) was 3 fold, the IC50 [5, 8] was 0.35 µM and the IC50 [5, 9] was 0.12 µM. The “Fold increase in potency” value ([5]; with vs without Rifabutin) was 2.9 fold, the mean lifespan [6] was 34.6 and the median lifespan [6] was 33. For the same molecule, the “times as likely to die before those treated with doxorubicin+RTI-81” value [6] was 10.37 times and the “time of maximal tissue absorption” value [7] was 48 h.
